Test results: the supplement of paper PMC5908809

What was measured:
[1] = tested on: normal primary NK cells, pool 3 (3 donors) (IL-2 2.5 ng/mL); assay: drug sensitivity score (DSS) (DSS units); higher = more sensitive; extreme values may be limits of the assay; conditions: 72 h
[2] = tested on: KAI3 (IL-2 2.5 ng/mL); assay: as above; conditions: 72 h
[3] = tested on: IMC-1 (IL-2 20 ng/mL); assay: as above; conditions: 72 h
[4] = tested on: NK-YS (IL-2 2.5 ng/mL); assay: as above; conditions: 72 h
[5] = tested on: NK-92 (IL-2 2.5 ng/mL); assay: as above; conditions: 72 h
[6] = tested on: KHYG-1 (IL-2 2.5 ng/mL); assay: as above; conditions: 72 h
[7] = tested on: SNK-6 (IL-2 2.5 ng/mL); assay: as above; conditions: 72 h
[8] = tested on: normal primary NK cells, pool 1 (3 donors), resting (IL-2 0 ng/mL); assay: as above; conditions: 72 h
[9] = tested on: NKL (IL-2 2.5 ng/mL); assay: as above; conditions: 72 h
[10] = tested on: normal primary NK cells, pool 2 (3 donors) (IL-2 2.5 ng/mL); assay: as above; conditions: 72 h
[11] = tested on: YT (IL-2 2.5 ng/mL); assay: as above; conditions: 72 h
[12] = tested on: DERL-7 (IL-2 2.5 ng/mL); assay: as above; conditions: 72 h
[13] = tested on: normal primary NK cells, pool 1 (3 donors) (IL-2 2.5 ng/mL); assay: as above; conditions: 72 h
[14] = tested on: normal primary NK cells, pool 3 (3 donors) (IL-2 2.5 ng/mL); assay: percent inhibition of viability; higher = more inhibition; conditions: 72 h
[15] = tested on: KAI3 (IL-2 2.5 ng/mL); assay: as above; conditions: 72 h
[16] = tested on: IMC-1 (IL-2 20 ng/mL); assay: as above; conditions: 72 h
[17] = tested on: NK-YS (IL-2 2.5 ng/mL); assay: as above; conditions: 72 h
[18] = tested on: NK-92 (IL-2 2.5 ng/mL); assay: as above; conditions: 72 h
[19] = tested on: KHYG-1 (IL-2 2.5 ng/mL); assay: as above; conditions: 72 h
[20] = tested on: SNK-6 (IL-2 2.5 ng/mL); assay: as above; conditions: 72 h
[21] = tested on: normal primary NK cells, pool 1 (3 donors), resting (IL-2 0 ng/mL); assay: as above; conditions: 72 h
[22] = tested on: NKL (IL-2 2.5 ng/mL); assay: as above; conditions: 72 h
[23] = tested on: normal primary NK cells, pool 2 (3 donors) (IL-2 2.5 ng/mL); assay: as above; conditions: 72 h
[24] = tested on: YT (IL-2 2.5 ng/mL); assay: as above; conditions: 72 h
[25] = tested on: DERL-7 (IL-2 2.5 ng/mL); assay: as above; conditions: 72 h
[26] = tested on: normal primary NK cells, pool 1 (3 donors) (IL-2 2.5 ng/mL); assay: as above; conditions: 72 h
[27] = tested on: normal NK cells expanded with K562-aAPC; assay: drug sensitivity score (DSS) (DSS units); higher = more sensitive; extreme values may be limits of the assay; conditions: 72 h; IL-2 2.5 ng/mL
Procedure: (§1)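 Drug sensitivity and resistance testing on K562-aAPC-expanded normal NK cells: 5 concentrations (10-fold steps over a 10,000-fold range), 72 h at 37 °C, viability by CellTiter-Glo normalised to DMSO and benzethonium chloride controls; DSS from the fitted curve.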

[28] = tested on: normal NK cells expanded with K562-aAPC; assay: percent inhibition of viability; higher = more inhibition; conditions: 72 h, IL-2 2.5 ng/mL
Procedure: as §1

S=P(N1CC1)(N1CC1)N1CC1 [Thio-TEPA] (max concentration tested 50000 nM)
Conditions | drug sensitivity score
[1] | 0
[2] | 8.32
[3] | 0
[4] | 1.65
[5] | 5.84
[6] | 0
[7] | 1.69
[8] | 1.68
[9] | 8.54
[10] | 1.52
[11] | 0
[12] | 0
[13] | 0
[27] | 0

percent inhibition of viability [%]
Conditions | 5 nM | 50 nM | 500 nM | 5000 nM | 50000 nM
[14] | -5.53 | 7.66 | 3.04 | 4.82 | 3.08
[15] | -3.61 | -4.29 | 12.8 | 35.4 | 69.6
[16] | -2.71 | -4.91 | -3.42 | -4.6 | 8.77
[17] | -1.57 | -3.69 | 3 | 9.54 | 24.2
[18] | -3.47 | 8.15 | 14.3 | 25.1 | 37.1
[19] | -7.42 | -4.16 | 1.44 | 6.58 | 8.07
[20] | -0.04 | -12.4 | -4.8 | -5.86 | 41.2
[21] | -8.22 | 7.58 | 6.34 | 14.9 | 17.1
[22] | -8.09 | 4.28 | 15.5 | 33.8 | 72.4
[23] | -1.52 | 9.19 | 11.7 | 8.43 | 19.8
[24] | -4.88 | -5.74 | 1.43 | 6.47 | 8.31
[25] | 1.93 | 5.03 | -0.04 | 1.45 | 3.25
[26] | 0.27 | 11.7 | 6.98 | 8.81 | 2.16
[28] | -5.81 | -5.71 | -4.89 | 3.45 | 9

CC(C)C[C@@H](C(=O)N[C@H](C(=O)OC1CCCC1)c1ccccc1)[C@H](O)C(=O)NO [Tosedostat] (max concentration tested 10000 nM)
Conditions | drug sensitivity score
[1] | 1.63
[2] | 1.15
[3] | 1.21
[4] | 8.33
[5] | 5.36
[6] | 7.83
[7] | 0
[8] | 15.1
[9] | 6.28
[10] | 6.04
[11] | 6.11
[12] | 18
[13] | 8
[27] | 2.81

percent inhibition of viability [%]
Conditions | 1 nM | 10 nM | 100 nM | 1000 nM | 10000 nM
[14] | -8.47 | -19.6 | -9.22 | 2.66 | 28.9
[15] | -9.18 | -2.01 | 1.91 | 5.58 | 19.7
[16] | 1.56 | 3.44 | 2.86 | -8.8 | 34.8
[17] | 1.05 | 7.39 | 20.1 | 32.9 | 43.8
[18] | -7.95 | -5.73 | 1.42 | 28.5 | 39.5
[19] | -2.21 | -0.34 | 2.84 | 38.9 | 56
[20] | 15.8 | -24.2 | -35 | -26.7 | -18.3
[21] | -9.12 | -11.9 | 19.5 | 68.8 | 83
[22] | 2.1 | 17 | 15 | 11.9 | 77.3
[23] | -1.97 | -1.61 | 3.93 | 27.9 | 53.1
[24] | -4.4 | 5.94 | -1.61 | 16.7 | 64.4
[25] | 0.91 | 28.1 | 38.8 | 57.2 | 60.4
[26] | 0.7 | -2.5 | 14.2 | 32.4 | 71.7
[28] | -1.88 | 6.85 | 7.57 | 15.4 | 28.1

CC1=C(/C=C/C(C)=C/C=C/C(C)=C/C(=O)O)C(C)(C)CCC1 [Tretinoin] (max concentration tested 10000 nM)
Conditions | drug sensitivity score
[1] | 0
[2] | 0.68
[3] | 0
[4] | 2.28
[5] | 0
[6] | 4.32
[7] | 0
[8] | 3.02
[9] | 4.28
[10] | 0
[11] | 0
[12] | 0
[13] | 0
[27] | 0

percent inhibition of viability [%]
Conditions | 1 nM | 10 nM | 100 nM | 1000 nM | 10000 nM
[14] | -4.65 | -2.78 | -10.4 | -7.74 | -8.57
[15] | -2.48 | -3.65 | -1.2 | 3.75 | 16
[16] | -5.65 | -8.65 | -8.92 | -15.6 | -11.9
[17] | -3.42 | -0.23 | 9.86 | 11.1 | 28.9
[18] | -0.77 | -12.9 | -9.35 | 0.15 | -0.14
[19] | -3.1 | -0.61 | 11.5 | 20.8 | 33
[20] | -9.38 | 11.7 | 19.6 | -4.95 | 10.5
[21] | -8.15 | -5.96 | -18.7 | 18.4 | 26.4
[22] | -12.8 | -0.36 | -1.84 | 17.5 | 39.7
[23] | -8.71 | -3.05 | -10.2 | -13.1 | 1.08
[24] | -1.46 | -2.61 | -3.8 | -1.99 | 3.09
[25] | 0.02 | -9.97 | -17.2 | -1.93 | 1.55
[26] | -4.29 | -17 | -11.3 | -4.32 | 10.6
[28] | -4.58 | -6.04 | -10.1 | -14.2 | -11.4
